Here are results for 89 molecules from PubChem BioAssay AID1159563 (GlaxoSmithKline (GSK), 2015).

The experiment has as its system HepG2 cytotoxicity. Kind of experiment: HepG2 cell cytotoxicity, cytotoxicity control (AID 1159563).

SMILES strings stand for the structures. Calls of active or inactive are those of the source. The rule behind the calls is not given here.

In general, IC50 refers to the concentration needed to halve the response being measured. Consider `COc1ccc(Nc2nc(NC3CCC(O)CC3)ncc2Br)c(C(N)=O)c1` (centres undefined), for which the IC50 was > 100 µM (inactive).

As for `CCN(CC)S(=O)(=O)c1ccc(OC)c(NC(=O)c2ccc([N+](=O)[O-])s2)c1`, the IC50 was > 100 µM (inactive).

For `Cc1c(C(C)NC(=O)Nc2cccc(Cl)c2)sc2ncnn12` (centres undefined), the IC50 was > 100 µM (inactive).

In the case of `c1ccc(Nc2nc3ccccc3[nH]2)nc1`, the IC50 was 79 µM.

On to `Cc1[nH]nc(-c2nc3ccccc3[nH]2)c1C(=O)NC1CCCNC1` (centres undefined), for which the IC50 was > 100 µM (inactive).

Consider `Oc1c(-c2n[nH]c(Cc3ccc(F)cc3)n2)ncc2cccnc12`, for which the IC50 was 25 µM.

Turning to `Cc1ccc(-c2csc(NC(=O)C=Cc3ccc(S(=O)(=O)N4CCOCC4)cc3)n2)o1`, the IC50 is > 100 µM (inactive).

Turning to `N#Cc1ccc(S(=O)(=O)N2CCC3(CCN(c4ccccc4)C3=O)CC2)cc1`, the IC50 is > 100 µM (inactive).

Turning to `N#Cc1cccc(Nc2nccc(N3CCC(NS(=O)(=O)c4cccc(C#N)c4)CC3)n2)c1`, the IC50 is 50 µM.

With `COc1ccc(NS(=O)(=O)c2cc(NC(=O)Cc3ccc(C)cc3)ccc2N2CCOCC2)cc1`, the IC50 is > 100 µM (inactive).

Turning to `CN(C)S(=O)(=O)c1ccc(-c2cnc(N)c(-c3nc4ccc(F)cc4[nH]3)c2)cc1`, the IC50 was > 100 µM (inactive).

Consider `CC(C)N(C(=O)CN1C(=O)C(N)C(=O)N(c2ccccc2)c2ccccc21)c1ccccc1` (centres undefined), for which the IC50 is > 100 µM (inactive).

Regarding `Cc1ncsc1CNc1cnc(-c2ccc3c(c2)OCCO3)c(-c2cnn(C)c2)c1`, the IC50 is > 100 µM (inactive).

For the molecule `NC(=O)c1ncc(N[C@@H]2CCCNC2)nc1Nc1cccc(Cl)c1`, the half-inhibitory concentration (IC50) is 10 µM.

Turning to `N#Cc1c(Oc2cccc(Cl)c2)cccc1[N+](=O)[O-]`, the IC50 is 25 µM.

For `c1ccc(-c2nc(NCc3ccco3)c3ccccc3n2)nc1`, the IC50 was > 100 µM (inactive).

`Clc1ccc(C(CC2CCCCO2)Cn2cncn2)c(Cl)c1` (centres undefined): the IC50 is > 100 µM (inactive).

For `COc1ccc2c(Cl)c(C(=O)N3CCC3)sc2c1Cl`, the IC50 was > 100 µM (inactive).

Consider `Nc1nc(-c2ccccn2)nc(N)c1Cc1c(F)cccc1Cl`, for which the half-inhibitory concentration (IC50) is 20 µM.

As to `O=C(Cc1ccccc1)Nc1ccccc1C(=O)Nc1nccs1`, the IC50 was > 100 µM (inactive).

In the case of `CCOc1ccc(OCC(=O)N2c3ccccc3CC2C(=O)NC)cc1` (centres undefined), the IC50 is > 100 µM (inactive).

As for `O=C(COc1ccccc1)Nc1ccccc1C(=O)Nc1nccs1`, the IC50 is > 100 µM (inactive).

As to `O=C(c1cccc(Cl)c1Cl)N1CCn2c1nc(-c1ccncc1)cc2=O`, the IC50 is > 100 µM (inactive).

As to `O=[N+]([O-])c1ccc(C2=CC(c3ccccc3)=NCCN2)cc1`, the 50% inhibitory concentration (IC50) is 50 µM.

On to `CNc1nc(C)nc(N2CCc3cc(C(=O)NCc4ccc(-c5ccn[nH]5)cc4Cl)ccc32)n1`, for which the IC50 is > 100 µM (inactive).

Consider `Cc1cnc(Nc2cc(Cc3ccccc3)nc(NC3CCC(O)CC3)n2)s1` (centres undefined), for which the IC50 was 25 µM.

For `CN(Cc1ccc(F)cc1)c1ccc(OCC(=O)N2CCCCC2c2cccnc2)nn1` (centres undefined), the IC50 is > 100 µM (inactive).

With `COc1ccc(S(=O)(=O)Nc2ccccc2OC)cc1NC(=O)CCCc1c[nH]c2ccccc12`, the IC50 is > 100 µM (inactive).

Take `COc1ccc(OC)c(S(=O)(=O)N(Cc2c(F)cccc2F)[C@@H]2CCN(C#N)C2)c1`: the concentration for half-maximal inhibition (IC50) was 79 µM.

Regarding `Cc1nc2c(-c3cccs3)c(C)nn2c(NCCO)c1C`, the IC50 was > 100 µM (inactive).

Regarding `N#Cc1cc(-c2ccnc(Nc3cccc(CN4CCOCC4)c3)n2)ccc1NCCN`, the 50% inhibitory concentration (IC50) is 50 µM.

In the case of `Cc1nc(C(=O)Nc2ccc3c(c2)OCO3)nn1-c1ccc(Cl)cc1`, the IC50 was > 100 µM (inactive).

For `CC(Cn1ccnc1)NC(=O)COc1ccc(Cl)c(Cl)c1` (centres undefined), the IC50 is > 100 µM (inactive).

Regarding `Cc1cccnc1CN1CCN(CCCOc2ccc(-c3ccc(C(N)=O)cc3)cc2)CC1`, the IC50 is > 100 µM (inactive).

With `Cc1c(Nc2cc(C3CC3)[nH]n2)ccc(C#N)c1Cl`, the IC50 is 40 µM.

On to `Cc1nn(-c2nc3ccccc3[nH]2)c2c1C(c1ccc(O)cc1)CC(=O)N2` (centres undefined), for which the IC50 is 25 µM.

In the case of `CC(C)(C)c1cc(NC2CC2)nc(-c2ccccn2)n1`, the IC50 was > 100 µM (inactive).

For the molecule `O=C(CSc1ccc(F)cc1)N[C@@H](Cc1cnc[nH]1)C(=O)NCCc1ccccc1`, the IC50 is > 100 µM (inactive).

Consider `CNc1cncc(C2CCCN2C(=O)Cc2ccc3ccccc3c2)n1` (centres undefined), for which the IC50 is > 100 µM (inactive).

Regarding `NS(=O)(=O)c1ccc(CNC(=O)c2ccc([N+](=O)[O-])s2)cc1`, the IC50 is 16 µM.

With `O=c1[nH]c(NCCCNCc2cc(Br)cc(Br)c2)nc2ccsc12`, the half-inhibitory concentration (IC50) was 50 µM.

Take `Cc1cc2cc(CNc3ccc4c(c3)OCO4)c(=O)n(CCO)c2cc1C`: the IC50 was > 100 µM (inactive).

As for `CNC(=O)C1Cc2ccccc2N1C(=O)Cc1ccc(F)cc1` (centres undefined), the IC50 is > 100 µM (inactive).

Consider `Cc1nc2c(-c3n[nH]c(-c4ccccc4N)n3)cccn2c1C`, for which the IC50 is 16 µM.

For the molecule `CCOC(=O)c1cn[nH]c1S(=O)(=O)N1CCC1c1ccccc1` (centres undefined), the IC50 was > 100 µM (inactive).

With `CC(c1cc(Cl)cc(Cl)c1)N(C)c1ncc2c(N)nc(N)nc2n1` (centres undefined), the IC50 is 63 µM.

`O=C1CSC(c2cccnc2)N1c1ccc(Cl)cc1Cl` (centres undefined): the IC50 is > 100 µM (inactive).

Regarding `COc1ccc(-c2cnc(C)o2)cc1S(=O)(=O)Nc1ccc(C)cc1C`, the IC50 was > 100 µM (inactive).

As to `CC1CN(S(=O)(=O)c2ccc(NC(=O)c3cc(C4CC4)nc4c3cnn4C(C)C)cc2)CC(C)O1` (centres undefined), the IC50 is > 100 µM (inactive).

With `O=c1ccc2ccc(F)c3c2n1C[C@H]3CN1CCN(CC(O)c2cc3c(cn2)OCS3)CC1` (some centres undefined), the IC50 was > 100 µM (inactive).

With `Cc1[nH]n2c(=O)c3c(nc2c1-c1ccc(F)cc1)CCCC3`, the IC50 was > 100 µM (inactive).

As for `CCC(=O)Nc1ccc(-c2nc3ccc(Cl)cc3[nH]2)cc1`, the IC50 was > 100 µM (inactive).

`N#Cc1ccc(S(=O)(=O)N2CCN(Cc3cccc(-c4ccncc4)c3)CC2)cc1`: the IC50 is > 100 µM (inactive).

On to `O=C(Nc1cccc(F)c1)N1CCC(Oc2cccc(-c3cccnc3)c2)CC1`, for which the IC50 is > 100 µM (inactive).

`Cn1nc([N+](=O)[O-])nc1Oc1ccc(C(=O)c2ccccc2)cc1`: the IC50 was > 100 µM (inactive).

With `CC(Cn1ccnc1)NC(=O)C=Cc1ccc(Cl)cc1` (centres undefined), the IC50 is > 100 µM (inactive).

Consider `CC(=O)Nc1ccc(-c2ccnc(Nc3cccc(C#N)c3)n2)cc1`, for which the IC50 is > 100 µM (inactive).

`CN(C)S(=O)(=O)c1cccc(C(=O)Nc2nc(-c3ccccn3)cs2)c1`: the IC50 is > 100 µM (inactive).

Take `COc1ccc(C2C3CCCCC3(O)CCN2CC(=O)Nc2ccc(Cl)cc2Cl)cc1` (centres undefined): the IC50 is > 100 µM (inactive).

As to `Clc1ccc(CN2CCN(C3=NCCN3)CC2)cc1Cl`, the 50% inhibitory concentration (IC50) was 63 µM.

In the case of `CNC(=O)C1Cc2ccccc2N1C(=O)COc1cccc(OC)c1` (centres undefined), the IC50 is > 100 µM (inactive).

Take `CN(Cc1nc2ccc(C(=O)NCC3CCCCC3)cc2[nH]1)C1CCCc2cccnc21` (centres undefined): the concentration for half-maximal inhibition (IC50) is 16 µM.

In the case of `O=c1cc(NCCCNCc2cc(C(F)(F)F)cs2)[nH]c2ccccc12`, the concentration for half-maximal inhibition (IC50) is 63 µM.

For the molecule `Clc1ccc(Sc2cnccc2N2CCOCC2)cc1`, the IC50 was > 100 µM (inactive).

Consider `N#Cc1cccc(CN2CCC(N(Cc3cccnc3)C(=O)c3cc(F)c(F)cc3F)CC2)c1`, for which the IC50 is > 100 µM (inactive).

On to `O=C(NCCc1nc(-c2ccc(F)c(F)c2)n[nH]1)C1CCCCC1`, for which the IC50 was > 100 µM (inactive).

For the molecule `Cn1nc([N+](=O)[O-])nc1N1CCCCC1`, the IC50 was > 100 µM (inactive).

As to `O=C(NCCNc1noc(-c2ccc([N+](=O)[O-])cc2)n1)c1ccc(Cl)cc1`, the IC50 is > 100 µM (inactive).

Take `CCCN1CCN(Cc2ccc(S(=O)(=O)Nc3cccc(C)c3)cc2)CC1`: the IC50 is > 100 µM (inactive).

Turning to `Cc1sc(C)c(C(F)(F)F)c1CNCCCNc1cc(=O)c2ccccc2[nH]1`, the IC50 was 50 µM.

`COCCn1c(-c2ccc3c(c2)OCO3)cnc1NCc1ccccc1OC`: the concentration for half-maximal inhibition (IC50) was 40 µM.

Consider `Cc1ccc(Nc2nc(C3CCCN3Cc3ccn[nH]3)cs2)nc1` (centres undefined), for which the concentration for half-maximal inhibition (IC50) is 32 µM.

With `N#Cc1nc(C=Cc2ccccc2)oc1NCc1cccnc1`, the IC50 is > 100 µM (inactive).

`Cc1ccc(C)c(CN2C(=O)NC3(CCc4ccccc43)C2=O)c1` (centres undefined): the IC50 is > 100 µM (inactive).

For the molecule `c1ccc2c(CCOc3nccnc3-c3ccncc3)c[nH]c2c1`, the IC50 was > 100 µM (inactive).

With `O=c1cc(NCCCNCc2c[nH]c3ccc(Br)cc23)[nH]c2ccccc12`, the IC50 is > 100 µM (inactive).

On to `Cc1cc(NC(=O)C2CC2)ccc1OC1CCN(Cc2ccco2)CC1`, for which the concentration for half-maximal inhibition (IC50) is 50 µM.

`COc1ccc(-c2nc3ccncc3c(=O)n2CCOc2ccccc2)cc1`: the IC50 is > 100 µM (inactive).

In the case of `CCn1nccc1CN(C)C(=O)C=Cc1ccc(Cl)cc1`, the IC50 is > 100 µM (inactive).

For `COc1cccc(-c2cc(C(F)(F)F)nc(-n3ccc([N+](=O)[O-])n3)n2)c1`, the IC50 was > 100 µM (inactive).

Regarding `CN(C)c1ncc(-c2cncn2CCOc2ccc(Cl)cc2)cn1`, the IC50 is > 100 µM (inactive).

As for `O=C(NCCc1ccccn1)C(c1cn[nH]c1)N1CCN(c2ccc(Cl)c(Cl)c2)CC1` (centres undefined), the IC50 is > 100 µM (inactive).

On to `Cc1cc2nc(N3CC[C@H]3C(N)=O)nc(Nc3cc(C4CC4)[nH]n3)c2s1`, for which the IC50 is > 100 µM (inactive).

Turning to `CC(C)(C)C(Cn1ccnc1)NC(=O)c1ccc2nc(C3CC3)oc2c1` (centres undefined), the IC50 is > 100 µM (inactive).

Take `Cc1[nH]n2c(=O)c3c(nc2c1-c1ccc(Br)cc1)CCCC3`: the IC50 is > 100 µM (inactive).

Take `O=C(NCCCn1cnc2ccccc21)c1ccc(NC(=O)c2ccco2)cc1`: the half-maximal inhibitory concentration (IC50) is 16 µM.

Consider `COc1cc(C2SCC(=O)Nc3c2c(C)nn3-c2nc3ccccc3s2)cc(OC)c1O` (centres undefined), for which the IC50 was > 100 µM (inactive).

As to `CCC(=O)Nc1ccc(C(=O)Nc2ccccc2-c2ccccc2)cc1`, the IC50 is > 100 µM (inactive).

Consider `COc1cccc(CCNC(=O)C(c2cn[nH]c2)N2CCN(c3ccc(Cl)cc3)CC2)c1` (centres undefined), for which the 50% inhibitory concentration (IC50) was 50 µM.
